Values quoted from earlier work, collected in patent US20080139531A1, “USE OF CONNECTIVE TISSUE MAST CELL STABILIZERS TO FACILITATE OCULAR SURFACE RE-EPITHELIZATION AND WOUND REPAIR” (ALCON MANUFACTURING LTD., priority 2006, published 2008).

Tested on: human conjunctival mast cells
Settings: qualitative statement citing Yanni et al., 1997

Row | Structure (SMILES) | inhibition of histamine release from human conjunctival mast cells
1 | CN(C)CCC=C1c2ccccc2COc2ccc(CC(=O)O)cc21 [olopatadine, 11-(3-dimethylaminopropylidene)-6,11-dihydrodibenz[b,e]oxepin-2-acetic acid] | inhibits histamine release
2 | Cc1cccn2c(=O)c(-c3nnn[nH]3)cnc12 [pemirolast] | Unlike cromolyn and pemirolast, olopatadine inhibits histamine release
